Results as given in US20090253743A1, “COMPOSITIONS OF TOLPERISONE” (Avigen, Inc., priority 2007, published 2009).
Counter-ions that a name gives are not always drawn.

Key:
Assay type in all cases: physicochemical
[1] = HPLC-MS/MS analysis of 4-MMPPO content in tolperisone compositions
[2] = Stability studies of 4-MMPPO / tolperisone HCl solutions (liquid-liquid extraction, HPLC-MS/MS)
Method: The analytical method employed utilized liquid-liquid extraction and HPLC separation on a C18-column with MS/MS detection and internal standardization.
Test solution: 50 mM HCl in methanol containing 40 mg per 200 μL of tolperisone HCl (containing 4-MMPPO as an impurity)
Samples were prepared for analysis generally as follows. 200 μL of IS working solution was added to the dry weighed bulk material or to the 20 μL aliquots. The samples were vortexed, followed by addition of 200 μL of buffer solution. 0.40 mL of DIPE (diisopropyl ether) was then added, followed by extraction via vortexing, and phase separation via centrifugation. About 250 μL of supernatant solution was then transferred into each 5 mL conical centrifuge vial, followed by addition of 200 μL of buffer solution. The major portion of tolperisone was then re-extracted into the watery phase by vortexing, followed by phase separation by centrifugation. 50 μL of centrifugation supernatant was then transferred to each auto sample vial containing injection solution (75 μL of 50 mM HCl in DMSO/MeOH 2/1). Samples were capped (crimped) and vortexed, followed by injection of 7 μL sample into the HPLC-MS/MS system for analysis.
During stability studies for a calibration range from 1-200 ppm, various solutions: a) 4-MMPPO in tolperisone free solution (“reference solution”), b) tolperisone HCl solution (default concentration of 10 mg/mL) without spiking of any 4-MMPPO (“test solution”), and c) tolperisone HCl solution (default concentration of 10 mg/mL) spiked with 4-MMPPO (“spiked test solution”) were assessed under the following storage conditions: (i) for three freeze thaw cycles prior to sample preparation for analysis, (ii) at bench top temperature for 4 hours, and (iii) at auto sampler conditions for 12 hours after sample preparation for analysis. […] Additionally, 4-MMPPO was stable at −70° C. for 2 months prior to sample preparation for analysis.
During stability studies for a concentration range from 0.05-25 ppm, various solutions: a) 4-MMPPO in tolperisone free solution (“reference solution”), b) tolperisone HCl solution (default concentration of 200 mg/mL) without spiking of any 4-MMPPO (“test solution”), and c) tolperisone HCl solution (default concentration of 200 mg/mL) spiked with 4-MMPPO (“spiked test solution”) were assessed under the following storage conditions: (i) at bench top temperature for 2 hours prior to sample preparation for analysis, and (ii) at auto sampler conditions for 14 hours after sample preparation for analysis.

[3] = HPLC-MS/MS analysis of 4-MMPPO content in tolperisone compositions; settings: drug lot (API) used in the tablet
Method: Tolperisone compositions were obtained from various commercial sources and analyzed for 4-MMPPO content by HPLC-MS/MS.
All samples used in the analytical sequence were prepared for analysis as follows. Sample were homogenized if necessary (e.g., tablets) and weighed. For each tolperisone sample, approximately 20 mg of sample was added into a 20 mL flask. 20 mL of 50 mM HCl in MeOH was added to the flask, which was then placed in an ultrasonic bath for about 5 minutes. The contents of the flask were mixed on a vortexer for about 20 seconds. In instances in which the tolperisone sample had initially been in tablet form, the solution was then centrifuged at 4000 rpm for 2 minutes. 200 μL of the sample was then transferred into a small conical centrifuge vial. 20 μL of an internal standard solution containing deuterated 4-MMPPO, 200 μL of buffer at pH 1, and 0.4 mL of diisopropyl ether (DIPE) were added to the vial. The sample was then extracted by vortexing with a DVX-2500 multi-tube vortexer (2100 rpm) for about 2 minutes (cycle: 5 seconds run, 1 second pause time) and centrifugation (phase separation) at 4000 rpm for 2 minutes. 150 μL of 50 mM HCl in MeOH/DMSO (½) was added into empty designated conical autosampler vials. After centrifugation, 100 μL of supernatant was transferred into these conical autosampler vials. The vials were crimped and vortexed with a DVX-2500 multi-tube vortexer (2100 rpm) for about 1 minute. 7 μL of the prepared sample was then injected immediately into an HPLC-MS/MS system or the sample was stored at a temperature below −20° C. until analysis. The chromatography conditions and mass spectrometry parameters used for analysis of 4-MMPPO are shown below in Tables 1 and 2, respectively.
Lots of tolperisone were obtained from manufacturers A and B, as were the final manufactured tablet formulations. Analyses were carried out as described in Example 1 to determine 4-MMPPO levels in both drug lots and final manufactured formulations.

[4] = calibration range 1-200 ppm, tolperisone HCl 10 mg/mL, each of: three freeze thaw cycles, bench top 4 hours, auto sampler 12 hours
[5] = range 0.05-25 ppm, tolperisone HCl 200 mg/mL, auto sampler conditions 14 hours after sample preparation

Cc1ccc(C(=O)C(C)CN2CCCCC2)cc1 (centres unmarked) [tolperisone HCl, tolperisone hydrochloride]
level of 4-MMPPO ([1]; recrystallized, washed with MTBE saturated with citric acid): below 1 ppm
4-MMPPO concentration on storage of solution [2, 4]: slight increase
4-MMPPO concentration on storage of solution [2, 5]: constant 4-MMPPO concentration
4-MMPPO concentration on storage of solution ([2]; range 0.05-25 ppm, tolperisone HCl 200 mg/mL, bench top temperature 2 hours prior to sample preparation): slight increase

Cc1ccc(C(=O)C(C)CN2CCCCC2)cc1 (centres unmarked) [SFO192, tolperisone]
[4-MMPPO in Drug Lot or API], ppm [3]: 21 ppm
[4-MMPPO in Drug Lot or API], ppm ([3]; listed as SF0192): 21 ppm

Cc1ccc(C(=O)C(C)CN2CCCCC2)cc1 (centres unmarked) [SB0068, tolperisone]
[4-MMPPO in Drug Lot or API], ppm [3]: 39 ppm

C=C(C)C(=O)c1ccc(C)cc1 [Sample 4-MMPPO, 2-methyl-1-(4-methylphenyl)-propenone]
4-MMPPO concentration on storage of solution [2, 4]: constant 4-MMPPO concentration
4-MMPPO concentration on storage of solution [2, 5]: constant 4-MMPPO concentration
stability prior to sample preparation ([2]; −70° C. for 2 months): stable

Cc1ccc(C(=O)C(C)CN2CCCCC2)cc1 (centres unmarked) [SD0108, tolperisone]
[4-MMPPO in Drug Lot or API], ppm [3]: 14 ppm

Cc1ccc(C(=O)C(C)CN2CCCCC2)cc1 (centres unmarked) [SF0191, tolperisone]
[4-MMPPO in Drug Lot or API], ppm [3]: 22 ppm

Cc1ccc(C(=O)C(C)CN2CCCCC2)cc1 (centres unmarked) [tolperisone, 2-methyl-1-(4-methylphenyl)-3-(-piperidinyl)-1-propanone]
4-MMPPO in recrystallized tolperisone ([1]; Example 2, single standard recrystallization from 2-butanone/isopropanol, dried at 45-85° C.): 0.14 % by weight
4-MMPPO in recrystallized tolperisone ([1]; Example 2, subsequent production batches): < 0.05%
4-MMPPO levels in the final recrystallized tolperisone product ([1]; Example 5, 1% (v/v) concentrated aqueous HCl added to the recrystallization mixture): below 6.6 ppm
stability during recrystallization ([1]; in the presence of acid): enhanced stability

Cc1ccc(C(=O)C(C)CN2CCCCC2)cc1 (centres unmarked) [SE0107, tolperisone]
[4-MMPPO in Drug Lot or API], ppm [3]: 20 ppm
